Results taken from ChEMBL document CHEMBL1152407, “Identification of inhibitors of checkpoint kinase 1 through template screening” (J Med Chem, 2009).

Key:
[1] = target: Serine/threonine-protein kinase Chk2 (Homo sapiens, UniProt O96017)
Description: Inhibition of CHK2 assessed as CDC25C peptide phosphorylation by DELFIA assay

[2] = target: Cyclin-dependent kinase 1 (Homo sapiens) (UniProt P06493); experiment: Inhibition of CDK1 assessed as Rb (ser780) biotinylated peptide phosphorylation at 100 uM by DELFIA assay
[3] = Selectivity ratio of IC50 for CHK2 to IC50 for CHK1
[4] = target: T1, Serine/threonine-protein kinase Chk1 (Homo sapiens, UniProt O14757)
T1 sequence (O14757 whole entry): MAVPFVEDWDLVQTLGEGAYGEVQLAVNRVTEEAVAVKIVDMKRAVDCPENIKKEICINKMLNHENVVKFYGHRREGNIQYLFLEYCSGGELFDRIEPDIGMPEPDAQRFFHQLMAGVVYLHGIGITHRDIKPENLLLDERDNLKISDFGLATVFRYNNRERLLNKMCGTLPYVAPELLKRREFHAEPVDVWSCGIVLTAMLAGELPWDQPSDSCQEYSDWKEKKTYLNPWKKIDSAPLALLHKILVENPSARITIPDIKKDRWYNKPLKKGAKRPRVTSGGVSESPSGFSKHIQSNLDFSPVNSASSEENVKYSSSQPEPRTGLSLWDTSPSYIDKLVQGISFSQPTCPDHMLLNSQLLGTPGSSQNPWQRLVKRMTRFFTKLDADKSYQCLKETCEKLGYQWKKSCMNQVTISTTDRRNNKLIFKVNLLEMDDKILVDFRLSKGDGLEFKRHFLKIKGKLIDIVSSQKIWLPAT
Description: Inhibition of CHK1 assessed as CDC25C peptide phosphorylation by DELFIA assay

HT-29 = experiment: cells; settings: Homo sapiens, HT-29, 96 h
Description: Cytotoxicity against human HT-29 cells after 96 hrs by SRB assay

[5] = target: T2, Serine/threonine-protein kinase Chk1 (Homo sapiens) (UniProt O14757); experiment: Inhibition of CHK1 at 250 uM by alphascreen assay
T2 sequence (whole entry): T1 sequence (O14757 whole entry)

[6] = target: T2, Serine/threonine-protein kinase Chk1 (Homo sapiens); experiment: Inhibition of CHK1 assessed as CDC25C peptide phosphorylation at 100 uM by DELFIA assay
[7] = target: T2, Serine/threonine-protein kinase Chk1 (Homo sapiens); experiment: Inhibition of CHK1 at 250 uM by alphascreen assay in presence of 0.01% Triton-X100

Sequence of Cyclin-dependent kinase 1 (Homo sapiens) (P06493 whole entry, looked up): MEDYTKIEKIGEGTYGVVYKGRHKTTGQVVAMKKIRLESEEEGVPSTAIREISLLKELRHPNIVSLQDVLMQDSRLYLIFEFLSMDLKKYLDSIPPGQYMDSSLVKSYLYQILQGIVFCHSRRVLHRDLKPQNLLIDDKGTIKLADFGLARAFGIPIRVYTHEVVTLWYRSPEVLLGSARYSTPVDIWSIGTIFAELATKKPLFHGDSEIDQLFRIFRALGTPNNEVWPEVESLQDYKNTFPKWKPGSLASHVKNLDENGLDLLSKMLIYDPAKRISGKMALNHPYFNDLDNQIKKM
Sequence of Serine/threonine-protein kinase Chk2 (O96017 whole entry): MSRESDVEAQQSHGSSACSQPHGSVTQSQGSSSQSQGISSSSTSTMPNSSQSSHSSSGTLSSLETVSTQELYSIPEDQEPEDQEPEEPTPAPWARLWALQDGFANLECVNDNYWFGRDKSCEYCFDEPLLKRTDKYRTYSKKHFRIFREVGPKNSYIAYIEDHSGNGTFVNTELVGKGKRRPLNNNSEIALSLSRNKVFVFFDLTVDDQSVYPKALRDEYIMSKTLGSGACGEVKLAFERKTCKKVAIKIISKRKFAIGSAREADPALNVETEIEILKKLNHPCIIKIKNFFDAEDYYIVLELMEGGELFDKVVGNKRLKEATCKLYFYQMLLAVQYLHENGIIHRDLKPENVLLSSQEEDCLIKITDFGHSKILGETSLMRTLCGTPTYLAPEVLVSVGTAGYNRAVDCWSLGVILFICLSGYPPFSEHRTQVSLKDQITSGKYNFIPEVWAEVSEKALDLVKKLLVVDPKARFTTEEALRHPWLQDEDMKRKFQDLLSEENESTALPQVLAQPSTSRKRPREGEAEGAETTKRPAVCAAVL

Row | SMILES | inhibition [5] | inhibition [6] | inhibition [7] | other results
1 | NCC1CN(c2c(-c3ccsc3)cnc3[nH]ncc23)CCO1 (stereo not drawn) | – | – | – | IC50 [1]: 4.6 µM; inhibition [2]: 48%; Ratio IC50 [3]: 8; IC50 [4]: 0.29 µM; GI50 (HT-29): 10.5 µM
2 | CC(C)(C)Nc1nc(N)c(C(=O)c2ccccc2)s1 | 36.9% | 33% | 39.9% | –
3 | NC[C@@H]1CN(c2c(-c3ccccc3)cnc3[nH]ncc23)CCO1 | – | – | – | IC50 [1]: 5.9 µM; inhibition [2]: 43%; GI50 (HT-29): 40 µM
4 | Fc1ccc(-c2onc3ccc(-c4cc[nH]n4)cc23)cc1 | 26.4% | – | 6.5% | –
5 | NCC1CN(c2c(Br)cnc3[nH]ncc23)CCO1 (stereo not drawn) | – | – | – | IC50 [1]: 7.4 µM; inhibition [2]: 37%; Ratio IC50 [3]: 8; GI50 (HT-29): 16 µM
6 | CCCNc1nc2ccccc2c(=O)[nH]1 | 40.9% | 0% | 14.2% | –
7 | COc1cccc(CNc2ncnc3cc(OC)c(OC)cc23)c1 | 50.1% | – | 52.8% | –
8 | O=c1[nH]cnc2sc3c(c12)CCCC3 | 38.5% | – | 45.3% | –
9 | CCOC(=O)c1cnc2[nH]ncc2c1N1CCOC(CN)C1 (stereo not drawn) | – | – | – | inhibition [2]: 3%
10 | CC(=O)Nc1nc2c(s1)C(=O)NCCC2 | 51.4% | 27% | 43.1% | –
11 | CSC1=N/C(=C\c2cccs2)C(=O)N1 | 35.7% | 32% | 33.5% | –
12 | Clc1ccc2c(Nc3ccccc3)ncnc2c1 | 41.9% | – | 41.5% | –

The next lines start with results.

Row | inhibition [5] | inhibition [6] | inhibition [7] | SMILES | other results
13 | – | 12% | – | O=C(O)C1COCCN1c1ncnc2[nH]cnc12 (stereo not drawn) | –
14 | – | 43% | – | CC(C)(C)OC(=O)NCC1CN(c2ncnc3[nH]cnc23)CCO1 (stereo not drawn) | –
15 | – | 22% | – | O=C(O)CC1CN(c2ncnc3[nH]cnc23)CCO1 (stereo not drawn) | –
16 | 75.7% | – | 63% | c1nc(N2CCOCC2)c2nc[nH]c2n1 | –
